The results in this text go back to patent US20250346606A1, “CAMPTOTHECIN COMPOUND, PREPARATION METHOD THEREFOR, AND APPLICATION THEREOF” (SICHUAN KELUN-BIOTECH BIOPHARMACEUTICAL CO., LTD., priority 2021, published 2025).

What all share (assay type): cell-based, Human
One experiment concerns HT29 cells. The experiment in a line: Inhibitory effect of compounds on HT29 cell proliferation. The conditions noted are these: Homo sapiens, HT-29, 72 h, read-out: IC50, inhibitory activity on HT29 cell proliferation. The procedure, abridged:
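Adherent HT29 cells incubated with diluted compounds for 72 h; viability read by luminescence (Cell Counting-Lite 2.0, 10 min). Inhibition calculated against cell-free background and vehicle-treated cells; IC50 from four-parameter curve fit.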

Another experiment deals with A549 cells. The experiment is described as follows: Inhibitory effect of compounds on A549 cell proliferation. Particulars: Homo sapiens, A549, 72 h, read-out: IC50, inhibitory activity on A549 cell proliferation. Here is the method: (1) Cell plating: First, tumor cells A549 were cultured in the corresponding medium, then digested with trypsin, centrifuged and resuspended, and counted, and the cells were adjusted to an appropriate concentration for plating.
(§1) Co-incubation of the compound of the present disclosure and tumor cells: after the cells adhered to the wall, the medium was removed, and the diluted bioactive molecule (the compound of the present disclosure) was added to the wells of the above plate, and incubated for 72 h.
(§2) In vitro cell activity detection: After the incubation, 50 μL of Cell Counting-Lite™ 2.0 reagent (Vazyme/Novazyme) was added to each well, shaken and mixed well in the dark, reacted for 10 minutes, and then the detection was carried out with a microplate reader (manufacturer: BMG, Model: PHERAStar-FS) for reading. The background RLU was obtained by using cell-free medium (with Cell Counting-Lite™), and the vehicle RLU was obtained by using cell-containing medium (with Cell Counting-Lite™). Cell inhibition rate=1−(sample RLU−background RLU)/(solvent RLU−background RLU)×100%. According to the four-parameter model fitting curve, the half maximal inhibitory concentration (IC50) of the compound was calculated, and the detection results were shown in Table 4.

A further experiment relates to SKOV-3 cells. The experiment in a line: Inhibitory effect of compounds on SKOV-3 cell proliferation. The conditions noted are these: Homo sapiens, SK-OV-3, 72 h, read-out: IC50, inhibitory activity on SKOV-3 cell proliferation. Here is the method:
(1) Cell plating: First, tumor cells SKOV-3 were cultured in corresponding medium, then digested with trypsin, centrifuged, resuspended, and counted, and the cells were adjusted to an appropriate concentration for plating.
as §1
as §2, with “viability” for “activity”, “8.” for “4.”

Another experiment has as its system NCI-H358 cells. The experiment is described as follows: Inhibitory effect of compounds on NCI-H358 cell proliferation. The conditions noted are these: Homo sapiens, NCI-H358, 72 h, read-out: IC50, inhibitory activity on NCI-H358 cell proliferation, NCI-H358 human non-small cell lung cancer cells, 72 h incubation, Cell Counting-Lite 2.0. Put shortly: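 Adherent NCI-H358 cells were exposed to compound for 72 h, then viability was read by luminescence (Cell Counting-Lite 2.0). Inhibition calculated from RLU relative to cell-free background and vehicle wells; IC50 from a four-parameter fit.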

A further experiment deals with HCC70 cells. The experiment is described as follows: Inhibitory effect of compounds on HCC70 cell proliferation. The conditions noted are these: Homo sapiens, HCC70, 72 h, read-out: IC50, inhibitory activity on HCC70 cell proliferation. Here is the method:
(1) Cell plating: First, tumor cells HCC70 were cultured in corresponding medium, then digested with trypsin, centrifuged, resuspended, and counted, and the cells were adjusted to an appropriate concentration for plating.
as §1
as §2, with “viability” for “activity”, “16.” for “4.”

The test system of another experiment is HCC1806 cells. The experiment in a line: Inhibitory effect of compounds on HCC1806 cell proliferation. Particulars: Homo sapiens, HCC1806, 72 h, read-out: IC50, inhibitory activity on HCC1806 cell proliferation, HCC1806 human breast squamous carcinoma cells, 72 h incubation, Cell Counting-Lite 2.0. The procedure, abridged: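 HCC1806 cells, once adhered, were exposed to diluted compound for 72 h. Viability was read by Cell Counting-Lite 2.0 luminescence, inhibition calculated against vehicle and cell-free background RLU, and IC50 fitted with a four-parameter model.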

For a further experiment, the system named is NCI-N87 cells. The experiment is described as follows: Inhibitory effect of compounds on NCI-N87 cell proliferation. The conditions noted are these: Homo sapiens, NCI-N87, 72 h, read-out: IC50, inhibitory activity on NCI-N87 cell proliferation, NCI-N87 human gastric cancer cells, 72 h incubation, Cell Counting-Lite 2.0. Put shortly: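 Adherent NCI-N87 cells were exposed to compound dilutions for 72 h. Viability measured by Cell Counting-Lite 2.0 luminescence, with inhibition calculated against vehicle and cell-free background RLU. IC50 from four-parameter fit.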

Another experiment relates to Hela cells. The experiment is described as follows: Inhibitory effect of compounds on Hela cell proliferation. The conditions noted are these: Homo sapiens, HeLa, 72 h, read-out: IC50, inhibitory activity on Hela cell proliferation. On the procedure: (1) Cell plating: First, tumor cells Hela were cultured in corresponding medium, then digested with trypsin, centrifuged, resuspended, and counted, and the cells were adjusted to an appropriate concentration for plating.
as §1
as §2, with “viability” for “activity”, “14.” for “4.”

Structures are written as SMILES.

As for `CC[C@@]1(O)C(=O)OCc2c1cc1n(c2=O)Cc2c-1nc1cc(Cl)c(C)c3c1c2[C@H](NC[C@H](C)O)CC3` [Example 4 (2-7-B), (2S)—N-((1R,9S)-5-chloro-9-ethyl-9-hydroxy-4-methyl-10,13-dioxo-2,3,9,10,13,15-hexahydro-1H,12H-benzo[de]pyrano[3′,4′:6,7]indolizino[1,2-b]quinolin-1-yl)-2-hydroxypropylamine], the IC50 with HT29 cells is 5.44 nM; in the experiment with A549 cells, 16.4 nM; in the experiment with SKOV-3 cells, 9.47 nM; with NCI-H358 cells, 51.1 nM; with HCC70 cells, 192 nM.

In the case of `CC[C@@]1(O)C(=O)OCc2c1cc1n(c2=O)Cc2c-1nc1cc(Cl)c(C)c3c1c2[C@@H](NC(=O)[C@H](O)C1CC1)CC3` [Example 5 (2-12-C), (2R)—N-((1S,9S)-5-chloro-9-ethyl-9-hydroxy-4-methyl-10,13-dioxo-2,3,9,10,13,15-hexahydro-1H,12H-benzo[de]pyrano[3′,4′:6,7]indolizino[1,2-b]quinolin-1-yl)-2-cyclopropyl-2-hydroxyacetamide], the IC50 in the experiment with HT29 cells amounted to 1.49 nM; with A549 cells it was 6.64 nM; in the experiment with HCC1806 cells, 2.08 nM; in the experiment on SKOV-3 cells, 6.52 nM; in the experiment on NCI-H358 cells, 23.1 nM; in the experiment with NCI-N87 cells it was 4.51 nM. In addition, the IC50 with HCC70 cells came out at 211 nM.

On to `CC[C@@]1(O)C(=O)OCc2c1cc1n(c2=O)Cc2c-1nc1cc(Cl)c(C)c3c1c2[C@@H](NC(=O)C1(O)CC1)CC3` [Example 7 (2-20-A), N-((1S,9S)-5-chloro-9-ethyl-9-hydroxy-4-methyl-10,13-dioxo-2,3,9,10,13,15-hexahydro-1H,12H-benzo[de]pyrano[3′,4′:6,7]indolizino[1,2-b]quinolin-1-yl)-1-hydroxycyclopropane-1-carboxamide], for which the IC50 is 1.29 nM with HT29 cells; 8.14 nM with A549 cells; 6.79 nM in the experiment with SKOV-3 cells; 18.6 nM in the experiment with NCI-H358 cells; 4.54 nM in the experiment on NCI-N87 cells; 11.2 nM in the experiment with Hela cells. In the experiment with HCC70 cells, the IC50 was found to be 105 nM.
